Results published in ChEMBL document CHEMBL1201862, “PubChem BioAssay data set” (2004).
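Method: 48-hour compound exposure of cells in 96-well plates, five concentrations, linear interpolation of endpoints. GI50 marks 50% less growth.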 The source made the active and inactive calls. Rule as the data show it: active = GI50 up to about 1.1 µM and inactive = higher.

What was measured:
Experiment in all cases: NCI anticancer screen, dose series, 48 h
SF-539 = tested on: SF-539
COLO 205 = tested on: COLO 205
NCI-H226 = tested on: NCI-H226
EKVX = tested on: EKVX
SF-295 = tested on: SF-295
HL-60 = tested on: HL-60
SNB-19 = tested on: SNB-19
NCI-H23 = tested on: NCI-H23
SK-MEL-28 = tested on: SK-MEL-28
KM12 = tested on: KM12
A549 = tested on: A549
UACC-62 = tested on: UACC-62
U-251 = tested on: U-251
SNB-75 = tested on: SNB-75
SN12C = tested on: SN12C
MDA-MB-435 = tested on: MDA-MB-435
MCF7 = tested on: MCF7
SF-268 = tested on: SF-268
M14 = tested on: M14

Measured: GI50

CC1CN=C(Nc2cccc(F)c2)S1 (stereo not given)
inactive: SF-539 > 100 µM | COLO 205 > 100 µM | NCI-H226 > 100 µM | EKVX > 100 µM | SF-295 > 100 µM | HL-60 > 100 µM | SNB-19 > 100 µM | NCI-H23 > 100 µM | SK-MEL-28 > 100 µM | KM12 > 100 µM | A549 > 100 µM | UACC-62 > 100 µM | U-251 > 100 µM | SNB-75 > 100 µM | SN12C > 100 µM | MDA-MB-435 > 100 µM | MCF7 > 100 µM | SF-268 > 100 µM | M14 > 100 µM

Cc1nc(-c2ccc([N+](=O)[O-])cc2)cn2c1nc1ccccc12
inactive: SF-539 > 100 µM | COLO 205 > 100 µM | NCI-H226 > 100 µM | EKVX > 100 µM | SF-295 76.9 µM | HL-60 > 100 µM | SNB-19 65.8 µM | NCI-H23 > 100 µM | SK-MEL-28 > 100 µM | KM12 > 100 µM | A549 > 100 µM | UACC-62 15.9 µM | U-251 40.2 µM | SNB-75 24.6 µM | SN12C > 100 µM | MDA-MB-435 > 100 µM | MCF7 58.3 µM | SF-268 > 100 µM | M14 70.3 µM

O=c1[nH][nH]c(=O)c2c1ccc1oc3ccccc3c12
inactive: SF-539 > 100 µM | COLO 205 > 100 µM | NCI-H226 > 100 µM | EKVX 56.2 µM | SF-295 > 100 µM | HL-60 > 100 µM | SNB-19 > 100 µM | NCI-H23 > 100 µM | SK-MEL-28 > 100 µM | KM12 > 100 µM | A549 > 100 µM | UACC-62 > 100 µM | U-251 > 100 µM | SNB-75 > 100 µM | SN12C > 100 µM | MDA-MB-435 > 100 µM | MCF7 > 100 µM | SF-268 > 100 µM | M14 > 100 µM

CC1=CC(C2/C(=N/O)C=C(C)CC2(C)C)C(O)C(C)(C)C1 (stereo not given)
inactive: SF-539 24 µM | COLO 205 17.1 µM | NCI-H226 15.8 µM | EKVX 16.5 µM | SF-295 18.6 µM | HL-60 16 µM | SNB-19 15.8 µM | NCI-H23 16.2 µM | SK-MEL-28 15.7 µM | KM12 15.9 µM | A549 15.5 µM | UACC-62 15.2 µM | U-251 15.7 µM | SNB-75 14.8 µM | SN12C 18.4 µM | MDA-MB-435 16.4 µM | MCF7 15.3 µM | SF-268 18 µM | M14 15.1 µM

Brc1ccccc1/C=C\C1(c2ccccc2)OCCO1
inactive: SF-539 10.4 µM | COLO 205 19.6 µM | NCI-H226 18.3 µM | EKVX 15.8 µM | SF-295 13.4 µM | HL-60 24.7 µM | SNB-19 15 µM | NCI-H23 7.29 µM | SK-MEL-28 18.8 µM | KM12 2.34 µM | A549 16 µM | UACC-62 14.7 µM | U-251 6.24 µM | SNB-75 15 µM | SN12C 14.1 µM | MDA-MB-435 11.7 µM | MCF7 4 µM | SF-268 4.98 µM | M14 11.4 µM

O=C(NC(CO)CO)c1ccc2cc(C(=O)N3CC(CCl)c4ccc([N+](=O)[O-])cc43)[nH]c2c1 (stereo not given)
inactive: SF-539 > 100 µM | COLO 205 50 µM | NCI-H226 > 100 µM | EKVX > 100 µM | SF-295 > 100 µM | HL-60 > 100 µM | SNB-19 > 100 µM | NCI-H23 > 100 µM | SK-MEL-28 > 100 µM | KM12 > 100 µM | A549 > 100 µM | UACC-62 > 100 µM | U-251 > 100 µM | SNB-75 > 100 µM | SN12C > 100 µM | MDA-MB-435 > 100 µM | MCF7 > 100 µM | SF-268 > 100 µM | M14 > 100 µM

COC(=O)[C@@H]1[C@H]2CC[C@]3(C)[C@@H](OC(C)=O)CC[C@H]3[C@@H]2CC[C@H]1C(C)=O
inactive: SF-539 > 100 µM | COLO 205 > 100 µM | NCI-H226 > 100 µM | EKVX > 100 µM | SF-295 > 100 µM | HL-60 > 100 µM | SNB-19 > 100 µM | NCI-H23 > 100 µM | SK-MEL-28 > 100 µM | KM12 > 100 µM | A549 > 100 µM | UACC-62 > 100 µM | U-251 > 100 µM | SNB-75 > 100 µM | SN12C > 100 µM | MDA-MB-435 > 100 µM | MCF7 > 100 µM | SF-268 > 100 µM | M14 > 100 µM

O=c1[nH]c(=O)n(C2OC(CO)C(O)C2O)cc1Oc1ccccc1 (stereo not given)
inactive: SF-539 > 100 µM | COLO 205 > 100 µM | NCI-H226 > 100 µM | EKVX > 100 µM | SF-295 > 100 µM | HL-60 > 100 µM | SNB-19 > 100 µM | NCI-H23 > 100 µM | SK-MEL-28 > 100 µM | KM12 > 100 µM | A549 > 100 µM | UACC-62 > 100 µM | U-251 > 100 µM | SNB-75 > 100 µM | SN12C > 100 µM | MDA-MB-435 > 100 µM | MCF7 > 100 µM | SF-268 > 100 µM | M14 > 100 µM

Brc1c(C#CCC(c2ccccc2)(c2ccccc2)c2ccccc2)ccc(C#CCC(c2ccccc2)(c2ccccc2)c2ccccc2)c1Br
inactive: SF-539 > 100 µM | COLO 205 > 100 µM | NCI-H226 > 100 µM | EKVX > 100 µM | SF-295 > 100 µM | HL-60 > 100 µM | SNB-19 > 100 µM | NCI-H23 > 100 µM | SK-MEL-28 > 100 µM | KM12 > 100 µM | A549 > 100 µM | UACC-62 > 100 µM | U-251 > 100 µM | SNB-75 > 100 µM | SN12C > 100 µM | MDA-MB-435 > 100 µM | MCF7 > 100 µM | SF-268 > 100 µM | M14 > 100 µM

CNC1NC(=O)c2ccccc2N1Cc1ccc(F)cc1 (stereo not given)
inactive: SF-539 > 100 µM | COLO 205 > 100 µM | NCI-H226 > 100 µM | EKVX > 100 µM | SF-295 > 100 µM | HL-60 > 100 µM | SNB-19 > 100 µM | NCI-H23 > 100 µM | SK-MEL-28 > 100 µM | KM12 > 100 µM | A549 > 100 µM | UACC-62 > 100 µM | U-251 > 100 µM | SNB-75 > 100 µM | SN12C > 100 µM | MDA-MB-435 > 100 µM | MCF7 > 100 µM | SF-268 > 100 µM | M14 > 100 µM
